What was measured:
Assay in all cases: Annexin V staining and flow cytometry (positive control)
Type in all cases: cell-based, human
Details in all cases: 100 nM, 24 hours
CCD-18Co = system: CCD-18Co
Protocol: (§1) Apoptosis in cells was assessed using an Annexin V Apoptosis Detection Kit (BD Pharmingen, San Jose, CA, USA) analyzed by using a BD Accuri C6 flow cytometer according to the manufacturer's instructions.
(§2) HCT-116 or SW48 were transfected with GFP empty vector or GFP-UBXN2A using the Neon electrotransfection system (HCT-116 and SW48) or lipofectamin 2000 (CCD-118-Co), achieving around 80% transfection efficiency. Apoptosis in cells was assessed using an Annexin V Apoptosis Detection Kit (BD Pharmingen, San Jose, CA) analyzed by a BD Accuri C6 flow cytometer according to the manufacturer's instructions. In each individual experiment, GFP expressing cells were first gated and then plotted versus Annexin V positive cells. 10,000 gated events were collected per sample. An apoptotic inducer, staurosporine (Sigma), was used as a positive control in all experiments.
(§3) FIG. 12: Annexin V staining and flow cytometry is a valid assay for measurement of early apoptosis. Un-transfected CCD-18Co, HCT-116, and SW48 cells were incubated with vehicle or staurosporine, a well-known inducer of apoptosis in a wide range of cell lines, for 24 hours. Subsequently, cells were stained with BD Biosciences Cy5 Annexin V and read on an Accuri C6 flow cytometer. Panel A. The histograms show a comparison of the distribution of Annexin V positive cells in un-transfected CCD-18Co, HCT-116 and SW48 cells (no gating). […] Panel C-D: We conducted a set of IP experiments to further confirm UBXN2A can only bind to the SBD domain and not the ATP domain. HCT-116 cells were transiently transfected with SBD domain or ATP domain of mot-2. After 36 hours, cell lysates were prepared followed by immunoprecipitation using anti-UBXN2A immobilized on magnetic protein G beads. Immunoprecipitation experiments verified UBXN2A binds to the SBD domain of mot-2 (amino acid residue 432-679) in HCT-116 cells and not the ATP domain (amino acid residue 1-437). This set of immunoprecipitation experiments verified results achieved in Y2H experiments. […]

HCT-116 = system: HCT-116
Protocol: as §1, §2, §3

SW48 = system: SW48
Protocol: as §1, §2, §3

Measured: apoptosis (Annexin V positive cells)

CN[C@@H]1C[C@H]2O[C@@](C)([C@@H]1OC)n1c3ccccc3c3c4c(c5c6ccccc6n2c5c31)C(=O)NC4 [staurosporine]
induce significant apoptosis: all assays above

From patent US12233129B2, “Methods and compositions for the treatment of cancer” (priority 2019, dated 2025)
